# PubChem BioAssay (NCI)
#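 Cultured in 96-well plates, cells were exposed to test compound for 48 hours across five concentrations. GI50: concentration for 50% inhibition of growth. TGI is the concentration that stops growth completely.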
# How the values were obtained:
# Assay in all cases: NCI tumour cell line growth inhibition, 48 h
# SF-268 CNS = test system: SF-268 CNS
# NCI-H522 lung = test system: NCI-H522 lung
# MOLT-4 leukemia = test system: MOLT-4 leukemia
# OVCAR-8 ovarian = test system: OVCAR-8 ovarian
# NCI-H23 lung = test system: NCI-H23 lung
# HOP-92 NSCLC = test system: HOP-92 NSCLC
# SK-OV-3 ovarian = test system: SK-OV-3 ovarian
# NCI/ADR-RES ovarian = test system: NCI/ADR-RES ovarian
# MDA-MB-435 = test system: MDA-MB-435
# MCF7 breast = test system: MCF7 breast
Compound,TGI (SF-268 CNS) [µM],TGI (NCI-H522 lung) [µM],TGI (MOLT-4 leukemia) [µM],TGI (OVCAR-8 ovarian) [µM],TGI (NCI-H23 lung) [µM],TGI (HOP-92 NSCLC) [µM],TGI (SK-OV-3 ovarian) [µM],TGI (NCI/ADR-RES ovarian) [µM],TGI (MDA-MB-435) [µM],TGI (MCF7 breast) [µM],GI50 (SF-268 CNS) [µM],GI50 (NCI-H522 lung) [µM],GI50 (NCI/ADR-RES ovarian) [µM],GI50 (HOP-92 NSCLC) [µM],GI50 (MOLT-4 leukemia) [µM],GI50 (OVCAR-8 ovarian) [µM],GI50 (NCI-H23 lung) [µM],GI50 (SK-OV-3 ovarian) [µM],GI50 (MCF7 breast) [µM],GI50 (MDA-MB-435) [µM]
N=C(N)SCc1cn2ccccc2n1,> 100,> 100,> 100,> 100,> 100,,,,,,,,,,,,,,,
C/C(=N/N(C=O)C[n+]1ccccc1)C(CN(CC(C)C)CC(C)C)C(=O)Nc1ccc(C)cc1C (stereo not given),> 100,> 100,> 100,> 100,> 100,> 100,> 100,,,,,,,,,,,,,
CON(C)C(=O)C(C)NC(=O)OCc1ccccc1 (stereo not given),> 100,,> 100,> 100,> 100,> 100,> 100,> 100,> 100,> 100,,,,,,,,,,
COc1ccc(C(C2=C(C)C(=O)c3ccccc3C2=O)c2ccc(C(C)C)cc(=O)c2O)cc1 (stereo not given),23,48.6,> 100,45.7,,10.3,14.6,,,,,,,,,,,,,
O=C(C(=O)c1ccc(Cc2ccc(C(=O)C(=O)c3ccccc3)cc2)cc1)c1ccccc1,> 100,> 100,,> 100,> 100,> 100,> 100,,,,,,,,,,,,,
CC[C@H](C)[C@H](NC(=O)c1cnccn1)C(=O)N(C)[C@H](C[C@@H](OC(C)=O)c1nc(C(=O)N[C@@H](Cc2ccccc2)C[C@H](C)C(=O)OC)cs1)C(C)C,> 33.3,2.49,> 33.3,> 33.3,> 33.3,11.4,> 33.3,> 33.3,,> 33.3,1.66,0.0552,2.81,0.416,2.23,1.68,1.69,1.95,0.0909,
NS(=O)(=O)c1ccc(N2Cc3cc(Cl)ccc3OC3=C2C(=O)N(CC2CCCCC2)C3=O)cc1,2.69,0.676,0.531,,3.61,2.67,4.26,5.05,2.23,1.9,1.22,0.273,1.74,1.31,0.195,,1.64,2.07,0.364,0.903
CC1=C(C(=O)NC2CCCCC2)CC(C(=O)NC2CCCCC2)=C(C)N1,> 100,> 100,> 100,,> 100,> 100,> 100,,> 100,> 100,,,,,,,,,,
Cc1cc(O)c2c(c1)C(O)(c1ccc3c(c1O)C(=O)c1c(O)cc(C)cc1C3(O)C1OC(CO)C(O)C(O)C1O)c1cccc(O)c1C2=O (stereo not given),36,,32.6,34,31.2,20.4,31.4,,,,,,,,,,,,,
Nc1nc2c(ncn2Cc2ccccc2CCO)c(=O)[nH]1,> 100,> 100,> 100,> 100,> 100,> 100,> 100,,,,,,,,,,,,,
